Measurements taken from paper PMC9227578, “Insight into the Molecular Mechanism for the Discrepant Inhibition of Microcystins (MCLR, LA, LF, LW, LY) on Protein Phosphatase 2A” (Toxins, 2022).

Tested on: PP2A
Test: colorimetric protein phosphatase (PP2A) inhibition assay
Format: biochemical
Procedure: The biological toxicity of the typical MCs was evaluated by a colorimetric protein phosphatase inhibition assay modified by Zong et al.. First, PP2A was diluted to 5 U/mL with a buffer solution (50 mM Tris-HCl pH 7.4, 2.0 mM dithiothreitol, 1 mM MnCl2) and 1.0 g/L bovine serum albumin. Then, 10 μL of PP2A and 100 μL of test samples were mixed in a 96-well polystyrene microplate. With gentle shaking, the microtiter plates were kept at 25.0 °C for 15 min, and 90 μL p-nitrophenyl disodium orthophosphate (5 mM) was added. After 1 h, the absorbances at 405 nm were measured in a microplate reader. The inhibition of the test samples on PP2A was calculated by the formula of IPP2A (%) = (Acontrol − Asample)/Acontrol × 100%. Acontrol and Asample were the absorbance of the reference sample ([…]) and the test sample at 405 nm, respectively.

Substance | inhibition sequence on PP2A | inhibition effect on PP2A
MCLF | MCLR > MCLW > MCLA > MCLF > MCLY | 
MCLA | MCLR > MCLW > MCLA > MCLF > MCLY | 
MCLR | MCLR > MCLW > MCLA > MCLF > MCLY | much higher inhibition effect than other MCs
MCLY | MCLR > MCLW > MCLA > MCLF > MCLY | lower inhibition
